From patent EP1561465A2, “Methods of use of fluoroquinolone compounds against bacteria” (LG Life Sciences, Ltd., priority 1999, dated 2001)
Converted amounts (≈) assume the structure as drawn.

Assays:
Experiment in all cases: MIC by agar dilution (NCCLS), 322 nosocomial Gram negative isolates, Athens 1998
Assay type in all cases: cell-based
Pseudomonas aeruginosa = conditions: n = 57 isolates
Klebsiella pneumoniae = conditions: Klebsiella pneumoniae; n = 56 isolates
Proteus mirabilis = conditions: Proteus mirabilis; n = 57 isolates
Enterobacter spp. = conditions: Enterobacter, n = 57 isolates; for MIC50: read-out: MIC50; for MIC90: read-out: MIC90
Acinetobacter spp. = conditions: Acinetobacter; n = 38 strains
Escherichia coli = conditions: n = 57 isolates

SMILES | MIC50 (Pseudomonas aeruginosa) | MIC90 (Pseudomonas aeruginosa) | MIC50 (Klebsiella pneumoniae) | MIC90 (Klebsiella pneumoniae) | MIC50 (Proteus mirabilis) | MIC90 (Proteus mirabilis) | MIC50 (Enterobacter spp.) | MIC90 (Enterobacter spp.) | MIC50 (Acinetobacter spp.) | MIC90 (Acinetobacter spp.) | MIC50 (Escherichia coli; Escherichia coli) | MIC90 (Escherichia coli; Escherichia coli) | MIC Range (Escherichia coli)
CO/N=C(\C(=O)N[C@@H]1C(=O)N2C(C(=O)[O-])=C(C[N+]3(C)CCCC3)CS[C@H]12)c1csc(N)n1 [Cefepime] | 8 µg/mL (≈ 16.6 µM) | > 64 µg/mL | 0.06 µg/mL (≈ 0.125 µM) | 8 µg/mL (≈ 16.6 µM) | 0.125 µg/mL (≈ 0.26 µM) | 8 µg/mL (≈ 16.6 µM) | 0.125 µg/mL (≈ 0.26 µM) | 16 µg/mL (≈ 33.3 µM) | 16 µg/mL (≈ 33.3 µM) | 64 µg/mL (≈ 133 µM) | – | – | –
CO[C@@]1(NC(=O)Cc2cccs2)C(=O)N2C(C(=O)O)=C(COC(N)=O)CS[C@@H]21 [Cefoxitin] | – | – | 4 µg/mL (≈ 9.36 µM) | 16 µg/mL (≈ 37.4 µM) | 4 µg/mL (≈ 9.36 µM) | 16 µg/mL (≈ 37.4 µM) | > 64 µg/mL | > 64 µg/mL | > 64 µg/mL | > 64 µg/mL | 4 µg/mL (≈ 9.36 µM) | 16 µg/mL (≈ 37.4 µM) | 2 to 32 µg/mL
